The subject of this data set is advanced metastatic renal cell carcinoma. The data set is described as follows: Phase III study of CCI-779 (temsirolimus) vs αIFN as first-line therapy. Type of data set: in vivo. The settings on record: for OS median: first-line, αIFN 3 MU escalating to 18 MU s.c. 3 times/week or CCI-779 25 mg i.v. weekly. The source says: In this phase III study, 626 advanced metastatic renal cell carcinoma patients from 26 countries were randomized to αIFN or CCI-779 (temsirolimus) as first-line therapy. This group is a very poor prognosis group of patients with many risk factors for early death. Patients received 3 million units (MU) of αIFN-alone subcutaneously 3 times/week, escalating to 18 MU or 25-mg CCI-779 intravenous infusion weekly.
Eligibility for this study required histologically confirmed, advanced (stage IV or recurrent disease) RCC with no prior systemic therapy for the disease. Subjects with central nervous system metastases, prior anticancer therapy for RCC and prior investigational therapy/agents within 4 weeks of randomization were excluded from the study.
The primary objective of this study was efficacy with a primary endpoint of overall survival. Secondary objectives of this study were safety, health outcomes, and additional efficacy endpoints. The secondary efficacy endpoints of this study were an evaluation of progression-free survival, response rate (complete and partial responses), clinical benefit rate, the duration of overall response, time to treatment failure, and health outcomes measurements. In addition, subject responses across all 3 treatment arms were evaluated based on screening tumor expression of proteins involved in the AKT-mTOR pathway. Other planned and post-hoc analyses were performed to assess influence of tumor histology (clear cell vs. non-clear cell), age (vs. >/=), and prognostic-risk groups (intermediate vs. poor).

[1] abbreviates: patients <65yo, previously untreated advRCC, vs. αIFN.
Where [2] appears, read: patients with clear-cell tumor histology.
Setting [3] is: patients with other (non clear-cell) tumor histology.
Where [4] appears, read: previously untreated clear-cell advRCC, vs. αIFN.
Where [5] appears, read: previously untreated non clear-cell advRCC, TEMSR alone vs. αIFN.

Where “and” joins values, the source holds several entries; their conditions need not be identical. Equal entries are not always repeated.

This is an account of results in patent US20080255177A1, “ANTI-TUMOR ACTIVITY OF CCI-779 IN PAPILLARY RENAL CELL CANCER” (Wyeth, priority 2007, published 2008).

`CO[C@H]1C[C@@H]2CC[C@@H](C)[C@@](O)(O2)C(=O)C(=O)N2CCCC[C@H]2C(=O)O[C@H]([C@H](C)C[C@@H]2CC[C@@H](OC(=O)C(C)(CO)CO)[C@H](OC)C2)CC(=O)[C@H](C)/C=C(\C)[C@@H](O)[C@@H](OC)C(=O)[C@H](C)C[C@H](C)/C=C/C=C/C=C/1C` [TEMSR, rapamycin 42-ester with 3-hydroxy-2-(hydroxymethyl)-2-methylpropionic acid]: for the setting “patients <65 years old”, the “OS hazard ratio, TEMSR vs. αIFN” value is 0.62 and 0.61; the “PFS hazard ratio, TEMSR vs. αIFN” value is 0.61 and 0.62. Besides, under setting [1], the “OS improved by” value turned out to be 64%, the “PFS prolonged by” value came to 61%, the “reduction in risk of death” value stood at 39% and the “risk of death or disease progression reduced by” value was found to be 38%. Further, the “difference in OS or PFS, TEMSR or αIFN” value (patients >/=65 years old) is reported as “no difference”. In addition, under setting [2], the “OS HR, TEMSR:IFN” value was 0.82; the “PFS HR, TEMSR:IFN” value is 0.76; the PFS median is listed as 5.5 mo; the OS median came out at 10.7 mo. Further, under setting [3], the “OS HR, TEMSR:IFN” value was 0.49; the “PFS HR, TEMSR:IFN” value is 0.38; the PFS median is 7.0 mo; the OS median came out at 11.6 mo. Moreover, under setting [4], the “OS improved by” value stood at 22%, the “PFS prolonged by” value came to 31%, the “reduction in risk of death” value is given as 18% and the “risk of death or disease progression reduced by” value is given as 24%. For the same compound, under setting [5], the “OS improved by” value is 104%, the “PFS prolonged by” value is recorded as 163%, the “reduction in risk of death” value was 51% and the “risk of death or disease progression reduced by” value is recorded as 62%. The “side effect profile vs. αIFN” value (stated for patients >/=65 years old) is reported as “better side effect profile than αIFN”.
